These are literature values, as cited in patent US20130177630A1 (priority 2012, published 2013).

The subject of this series is fibrolamellar hepatocellular carcinoma. To be noted: patient with fibrolamellar hepatocellular carcinoma.

Regarding `O=C(O)C(=O)CBr` [3-bromopyruvate], the side effects result is “severe side effects” and the “treatment outcome (survival)” value is listed as “life-extension characteristics”.
